Columns and labels:
Format in all cases: cell-based, human
[1] = tested on: scleroderma lung fibroblasts (SLF); assay: CSD peptide treatment of SLF, Western blotting
Description: (§1) Fibroblasts were derived from lung tissue obtained at autopsy from scleroderma patients (SLF) and from age-, race-, and sex-matched normal subjects (NLF) and cultured as previously described (44). Cells were used in passages 2-4. The group of scleroderma patients fulfilled the criteria of American college of Rheumatology for the diagnosis of scleroderma with lung involvement. Normal human lung tissue was obtained from the Brain and Tissue Bank for Developmental Disorders (Baltimore, Md.) or from the National Disease Research Interchange (Philadelphia, Pa.). Scleroderma lung tissue was obtained from the Division of Pathology and Laboratory Medicine at the Medical University of South Carolina (MUSC). The study was approved by the Institutional Review Board for Human Subject Research at the MUSC.
(§2) The CSD peptide (amino acids 82-101 of caveolin-1; […]) (SEQ ID NO: 1) and a scrambled control peptide ([…]) (SEQ ID NO: 2) were synthesized as fusion peptides to the C terminus of the Antennapedia internalization sequence (RQIKUVFQNRRMKWKK) (SEQ ID NO: 3). Before each experiment, desiccated peptides were dissolved at a final 1 mM in 10% DMSO as described by Bernatchez et al. (4). Cells in 6-well plates at 70-80% confluence were then incubated with 1 ml serum-free DMEM containing […] CSD or scrambled peptide. After 6 h, the culture medium and cell layer were harvested.
(§3) Cell layers were harvested in boiling SDS-PAGE sample buffer; medium was dialyzed, lyophilized, and resuspended in sample buffer. Aliquots of culture medium or of cell layer representing material derived from the same number of cells was probed using the following primary antibodies and appropriate secondary antibodies. Culture medium: goat anti-human collagen I (AB758P) and rabbit anti-human tenascin-C (AB19011) from Chemicon International (Temecula, Calif.). Cell layer: rabbit antibodies against PKCα (sc-208), PKCε (sc-214), activated JNK (sc-12882), activated Akt Thr 308 (sc-166646R) and caveolin-1 (sc-894) from Santa Cruz Biotechnology (Santa Cruz, Calif.); rabbit antibodies against ERK 1/2 (9102), activated ERK 1/2 (9106), JNK (9252), Akt (9272), MEK 1/2 (9122), and activated MEK 1/2 (9121) from Cell Signaling (Beverly, Mass.); mouse monoclonal anti-ASMA (clone 1A4) from Sigma (Saint Louis, Mo.), and mouse monoclonal anti-actin (MAB1501) from Chemicon International (Temecula, Calif.).
(§4) Immunoreactive bands were quantified by densitometry using the Image 1.32J NIH software. For statistical analysis the raw densitometric data were processed and analyzed using the Prism 3.0 (GraphPad Software Inc.) statistical analysis software.

[2] = tested on: normal lung fibroblasts (NLF); assay: Collagen and ASMA expression in NLF treated with CSD and its subdomains; settings: 3 μM peptide
Procedure: (§5) The indicated cell types (NLF and SLF) were cultured as described with 0, 1, 3, or 5 μM of the indicated peptides. Collagen in the medium and ASMA and actin (loading control) in the cell layer were detected by Western blotting. Blots were quantified densitometrically. The level of collagen and ASMA in cells treated with no peptide (divided by the level of actin) was set to 100 arbitrary units. Because SLF express higher levels of collagen and ASMA than do NLF, 100 arbitrary of collagen in SLF is equivalent to 195 arbitrary units of collagen in NLF and 100 arbitrary units of ASMA in SLF is equivalent to 255 arbitrary units of ASMA in NLF. The data presented are the average of the densitometric quantification of three independent experiments.
(§6) To compare the activity of CSD to its subdomains, five subdomains [A (82-88 amino acids), B (89-95), C (96-101), AB (82-95) and BC (89-101)] were synthesized in fusion with the Antennapedia internalization sequence and added to culture medium at 1, 3, and 5 μM. […] Very different results were obtained when examining ASMA expression.

[3] = tested on: scleroderma lung fibroblasts (SLF); assay: Collagen and ASMA expression in SLF treated with CSD and its subdomains
Procedure: as §5, §6

[4] = tested on: normal lung fibroblasts (NLF); assay: Immunocytochemistry and laser confocal microscopy of CSD peptide-treated NLF
Procedure: (§7) NLF or SLF cultured in 4-well glass chamber slides (Nalge Nunc International, Naperville, Ill.) as previously described (43) were incubated with CSD peptide or scrambled (Scr) peptide, fixed, permeabilized, and stained red with 7-aminoactinomycin D to detect nuclei and green using appropriate primary and secondary antibodies to detect caveolin-1 or ph-ERK. Images were captured by confocal microscopy.
as §7, with “ph-JNK” for “caveolin-1”, “ph-Akt.” for “ph-ERK.”
NLF and SLF were cultured in 4-well glass chamber slides (Nalge Nunc International, Naperville, Ill.) and stained as previously described (43) using the indicated primary antibodies and appropriate secondary antibodies tagged with Alexa Fluoro® 488 (Molecular Probes, Eugene, Oreg.). Nuclei were stained with 7-aminoactinomycin D (Molecular Probes, Eugene, Oreg.). Images were acquired using a Zeiss 510SML Laser Confocal Microscope (excitation S490/20, emission D528/38) fitted with an oil-immersion objective (40×/1.4).

[5] = tested on: normal lung fibroblasts (NLF); assay: CSD peptide treatment of NLF, Western blotting
Description: as §1, §2, §3, §4

[6] = 5 μM CSD peptide vs scrambled peptide
[7] = 5 μM CSD peptide vs scrambled peptide, collagen in culture medium, Western blotting
[8] = CSD peptide vs scrambled peptide

Sequence: DGIWKASFTTFTVTKYWFYR [CSD peptide]
- time in which inhibition of collagen expression occurs ([1]; 5 μM CSD): less than 5 hours
- decrease of MEK/ERK activation [1, 6]: about 50%
- inhibition of collagen expression [1, 7]: > 95%
- activation of Akt ([1]; CSD peptide vs Scr peptide): inhibited
- activation of JNK ([1]; CSD peptide vs Scr peptide): inhibited
- expression of total MEK, total ERK, total Akt, or total JNK ([1]; CSD peptide vs Scr peptide): did not affect
- ASMA expression [1, 8]: inhibited
- expression of caveolin-1 itself, PKCα, or PKCε [1, 8]: did not affect
- tenascin-C expression [1, 8]: inhibited
- collagen expression [2]: completely inhibited
- collagen expression ([3]; 3 μM peptide): completely inhibited
- inhibition of ASMA expression ([3]; 5 μM peptide): about 80%
- ASMA expression ([3]; peptides at 1, 3, and 5 μM): inhibited
- distribution of caveolin-1 staining ([4]; CSD peptide vs Scr peptide): staining associated with the plasma membrane becoming more prominent
- level of caveolin-1 expression detected by IHC ([4]; CSD peptide vs Scr peptide): did not affect
- distribution of activated Akt staining ([4]; CSD peptide vs control peptide): preferentially decreased perinuclear, nuclear, and cytoplasmic staining while increasing staining associated with the plasma membrane
- distribution of activated JNK staining ([4]; CSD peptide vs control peptide): preferentially decreased perinuclear staining and increased staining associated with the plasma membrane
- level of activated Akt (IHC) ([4]; CSD peptide vs control peptide): decreases
- level of activated ERK (IHC) ([4]; CSD peptide vs control peptide): decreases
- level of activated JNK (IHC) ([4]; CSD peptide vs control peptide): decreases
- localization of residual activated ERK staining ([4]; after CSD peptide): primarily perinuclear and cytoplasmic
- time in which inhibition of collagen expression occurs ([5]; 5 μM CSD): less than 5 hours
- decrease of MEK/ERK activation [5, 6]: about 50%
- inhibition of collagen expression [5, 7]: > 95%
- activation of Akt ([5]; CSD peptide vs Scr peptide): inhibited
- activation of JNK ([5]; CSD peptide vs Scr peptide): inhibited
- expression of total MEK, total ERK, total Akt, or total JNK ([5]; CSD peptide vs Scr peptide): did not affect
- expression of caveolin-1 itself, PKCα, or PKCε [5, 8]: did not affect
- tenascin-C expression [5, 8]: inhibited

Source: US8058227B2, “Method of treating fibrosis in a subject in need thereof comprising administering a composition comprising a CSD” (Medical University of South Carolina, priority 2006, dated 2011)
